Results: patent US7834005B2, “Pyrrolobenzodiazepine derivatives, compositions comprising the same and methods related thereto” (The United States of America as represented by the …, priority 2003, dated 2010)
Like-named read-outs stand apart in the source and are kept apart here.

Tests used:
[1] = tested on: CCRF-CEM; test: 60-cell-line screen: CCRF-CEM (Leukemia); type: cell-based
[2] = tested on: MOLT-4; test: 60-cell-line screen: MOLT-4 (Leukemia); type: cell-based
[3] = tested on: RPMI-8226; test: 60-cell-line screen: RPMI-8226 (Leukemia); type: cell-based
[4] = tested on: A549/ATCC; test: 60-cell-line screen: A549/ATCC (Non-Small Cell Lung); type: cell-based; details: read-out: LC50 (the source's name)
From the text: (§1) The concentration effects of the compound for various cancer cell lines are summarized in Tables 2-10, wherein GI50 is the drug concentration required to inhibit the growth of 50% of the cells, TGI is the drug concentration required for total growth inhibition, and LC50 is the drug concentration required to kill 50% of the cells.

[5] = tested on: EKVX; test: 60-cell-line screen: EKVX (Non-Small Cell Lung); type: cell-based; details: read-out: LC50 (the source's name)
[6] = tested on: HOP-62; test: 60-cell-line screen: HOP-62 (Non-Small Cell Lung); type: cell-based; details: read-out: LC50 (the source's name)
[7] = tested on: HOP-92; test: 60-cell-line screen: HOP-92 (Non-Small Cell Lung); type: cell-based; details: read-out: LC50 (the source's name)
[8] = tested on: NCI-H226; test: 60-cell-line screen: NCI-H226 (Non-Small Cell Lung); type: cell-based; details: read-out: LC50 (the source's name)
[9] = tested on: NCI-H23; test: 60-cell-line screen: NCI-H23 (Non-Small Cell Lung); type: cell-based
[10] = tested on: NCI-H322M; test: 60-cell-line screen: NCI-H322M (Non-Small Cell Lung); type: cell-based; details: read-out: LC50 (the source's name)
[11] = tested on: NCI-H460; test: 60-cell-line screen: NCI-H460 (Non-Small Cell Lung); type: cell-based; details: read-out: LC50 (the source's name)
[12] = tested on: NCI-H522; test: 60-cell-line screen: NCI-H522 (Non-Small Cell Lung); type: cell-based; details: read-out: LC50 (the source's name)
[13] = tested on: COLO 205; test: 60-cell-line screen: COLO 205 (Colon); type: cell-based
[14] = tested on: HCT-15; test: 60-cell-line screen: HCT-15 (Colon); type: cell-based; details: read-out: LC50 (the source's name)
[15] = tested on: KM12; test: 60-cell-line screen: KM12 (Colon); type: cell-based; details: read-out: LC50 (the source's name)
From the text: as §1

[16] = tested on: SW-620; test: 60-cell-line screen: SW-620 (Colon); type: cell-based; details: read-out: LC50 (the source's name)
From the text: as §1

[17] = tested on: SF-268; test: 60-cell-line screen: SF-268 (Central Nervous System); type: cell-based; details: read-out: LC50 (the source's name)
From the text: as §1

[18] = tested on: SF-295; test: 60-cell-line screen: SF-295 (Central Nervous System); type: cell-based; details: read-out: LC50 (the source's name)
From the text: as §1

[19] = tested on: SF-539; test: 60-cell-line screen: SF-539 (Central Nervous System); type: cell-based; details: read-out: LC50 (the source's name)
From the text: as §1

[20] = tested on: SNB-19; test: 60-cell-line screen: SNB-19 (Central Nervous System); type: cell-based; details: read-out: LC50 (the source's name)
[21] = tested on: SNB-75; test: 60-cell-line screen: SNB-75 (Central Nervous System); type: cell-based
[22] = tested on: U251; test: 60-cell-line screen: U251 (Central Nervous System); type: cell-based; details: read-out: LC50 (the source's name)
[23] = tested on: MALME-3M; test: 60-cell-line screen: MALME-3M (Melanoma); type: cell-based
[24] = tested on: M14; test: 60-cell-line screen: M14 (Melanoma); type: cell-based; details: read-out: LC50 (the source's name)
[25] = tested on: SK-MEL-2; test: 60-cell-line screen: SK-MEL-2 (Melanoma); type: cell-based
[26] = tested on: SK-MEL-28; test: 60-cell-line screen: SK-MEL-28 (Melanoma); type: cell-based; details: read-out: LC50 (the source's name)
[27] = tested on: UACC-257; test: 60-cell-line screen: UACC-257 (Melanoma); type: cell-based
[28] = tested on: UACC-62; test: 60-cell-line screen: UACC-62 (Melanoma); type: cell-based
[29] = tested on: IGROV1; test: 60-cell-line screen: IGROV1 (Ovarian); type: cell-based
[30] = tested on: OVCAR-3; test: 60-cell-line screen: OVCAR-3 (Ovarian); type: cell-based
From the text: as §1

[31] = tested on: OVCAR-4; test: 60-cell-line screen: OVCAR-4 (Ovarian); type: cell-based
From the text: as §1

[32] = tested on: OVCAR-5; test: 60-cell-line screen: OVCAR-5 (Ovarian); type: cell-based
From the text: as §1

[33] = tested on: OVCAR-8; test: 60-cell-line screen: OVCAR-8 (Ovarian); type: cell-based
From the text: as §1

[34] = tested on: SK-OV-3; test: 60-cell-line screen: SK-OV-3 (Ovarian); type: cell-based
From the text: as §1

[35] = tested on: 786-0; test: 60-cell-line screen: 786-0 (Renal); type: cell-based
[36] = tested on: ACHN; test: 60-cell-line screen: ACHN (Renal); type: cell-based
[37] = tested on: CAKI-1; test: 60-cell-line screen: CAKI-1 (Renal); type: cell-based
[38] = tested on: SN12C; test: 60-cell-line screen: SN12C (Renal); type: cell-based
[39] = tested on: TK-10; test: 60-cell-line screen: TK-10 (Renal); type: cell-based
[40] = tested on: UO-31; test: 60-cell-line screen: UO-31 (Renal); type: cell-based
[41] = tested on: PC-3; test: 60-cell-line screen: PC-3 (Prostate); type: cell-based
[42] = tested on: DU-145; test: 60-cell-line screen: DU-145 (Prostate); type: cell-based
[43] = tested on: NCI/ADR-RES; test: 60-cell-line screen: NCI/ADR-RES (Breast); type: cell-based
From the text: as §1

[44] = tested on: MDA-MB-231/ATCC; test: 60-cell-line screen: MDA-MB-231/ATCC (Breast); type: cell-based
From the text: as §1

[45] = tested on: HS 578T; test: 60-cell-line screen: HS 578T (Breast); type: cell-based; details: read-out: LC50 (the source's name)
From the text: as §1

[46] = tested on: MDA-MB-435; test: 60-cell-line screen: MDA-MB-435 (Breast); type: cell-based
[47] = tested on: MDA-N; test: 60-cell-line screen: MDA-N (Breast); type: cell-based
[48] = tested on: BT-549; test: 60-cell-line screen: BT-549 (Breast); type: cell-based; details: read-out: LC50 (the source's name)
From the text: as §1

[49] = tested on: T-47D; test: 60-cell-line screen: T-47D (Breast); type: cell-based; details: read-out: LC50 (the source's name)
[50] = tested on: HL-60(TB)
[51] = read-out: LC50 (the source's name)

C=C1C[C@H]2C(O)Nc3cc(OCCCOc4cc5c(cc4OC)C(=O)N4CC(=C)C[C@H]4C(O)N5)c(OC)cc3C(=O)N2C1 (stereo partly shown) [Compound 16]
LC50 [1]: −6 Log10[C] (M) | CC50 [1, 51]: 1000 nM | LC50 [2]: −7.15 Log10[C] (M) | CC50 [2, 51]: 70.8 nM | LC50 [3]: −7.08 Log10[C] (M) | CC50 [3, 51]: 83.2 nM | CC50 [4]: 1000 nM | CC50 [5]: 1000 nM | CC50 [6]: 1000 nM | CC50 [7]: 1000 nM | CC50 [8]: 1000 nM | LC50 [9]: −7.17 Log10[C] (M) | CC50 [9, 51]: 67.6 nM | CC50 [10]: 1000 nM | CC50 [11]: 1000 nM | CC50 [12]: 1000 nM | LC50 [13]: −6.6 Log10[C] (M) | CC50 [13, 51]: 251 nM | CC50 [14]: 1000 nM | CC50 [15]: 1000 nM | CC50 [16]: 1000 nM | CC50 [17]: 1000 nM | CC50 [18]: 1000 nM | CC50 [19]: 1000 nM | CC50 [20]: 1000 nM | LC50 [21]: −6.33 Log10[C] (M) | CC50 [21, 51]: 468 nM | CC50 [22]: 1000 nM | LC50 [23]: −7.15 Log10[C] (M) | CC50 [23, 51]: 70.8 nM | CC50 [24]: 1000 nM | LC50 [25]: −7.14 Log10[C] (M) | CC50 [25, 51]: 72.4 nM | CC50 [26]: 1000 nM | LC50 [27]: 1000 nM | LC50 [28]: −8.15 Log10[C] (M) | CC50 [28, 51]: 7.1 nM | LC50 [29]: −6 Log10[C] (M) | LC50 ([29]; read-out: LC50): 1000 nM | LC50 [30]: −6 Log10[C] (M) | CC50 [30, 51]: 1000 nM | LC50 [31]: −6 Log10[C] (M) | CC50 [31, 51]: 1000 nM | LC50 [32]: −6 Log10[C] (M) | CC50 [32, 51]: 1000 nM | LC50 [33]: −6 Log10[C] (M) | CC50 [33, 51]: 1000 nM | LC50 [34]: −6 Log10[C] (M) | LC50 ([34]; read-out: LC50): 1000 nM | LC50 [35]: −6 Log10[C] (M) | CC50 [35, 51]: 1000 nM | LC50 [36]: −6 Log10[C] (M) | CC50 [36, 51]: 1000 nM | LC50 [37]: −6 Log10[C] (M) | CC50 [37, 51]: 1000 nM | LC50 [38]: −6 Log10[C] (M) | CC50 [38, 51]: 1000 nM | LC50 [39]: −6 Log10[C] (M) | LC50 ([39]; read-out: LC50): 1000 nM | LC50 [40]: −6 Log10[C] (M) | CC50 [40, 51]: 1000 nM | LC50 [41]: −6 Log10[C] (M) | CC50 [41, 51]: 1000 nM | LC50 [42]: −6 Log10[C] (M) | CC50 [42, 51]: 1000 nM | LC50 [43]: 1000 nM | LC50 [44]: 1000 nM | CC50 [45]: 1000 nM | LC50 [46]: −7.07 Log10[C] (M) | CC50 [46, 51]: 85.1 nM | LC50 [47]: −7.24 Log10[C] (M) | CC50 [47, 51]: 57.5 nM | CC50 [48]: 1000 nM | CC50 [49]: 1000 nM | LC50 ([50]; Leukemia): −7.55 Log10[C] (M) | CC50 ([50]; read-out: LC50, Leukemia): 28.2 nM
